Values after ≈ are worked out from the molar mass of the structure shown. Where a name gives a salt, the structure may show the parent alone.
How the values were obtained:
Assay in all cases: Antibacterial activity, microbroth dilution method (MIC)
[1] = tested on: super sensitive Gram-negative Escherichia coli (E. coli) BAS849; format: cell-based; settings: Escherichia coli; super sensitive Gram-negative E. coli BAS849; microbroth dilution; read-out: MIC, E. coli BAS849
Outline: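 Each strain is exposed to test compound in a microbroth dilution series; visible growth is scored macroscopically, and the lowest growth-free concentration is recorded as MIC in μg/mL.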

[2] = tested on: Gram-positive Staphylococcus aureus (S. aureus) 29213; format: cell-based; settings: Staphylococcus aureus, Gram-positive S. aureus 29213
Outline: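 MIC (μg/mL) is taken as the lowest concentration with no macroscopically visible growth. Strains tested by microbroth dilution: Gram-positive S. aureus 29213, control Gram-negative E. coli 25922, and super-sensitive E. coli BAS849.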

[3] = tested on: control Gram-negative E. coli 25922 strain; format: cell-based, Escherichia coli; settings: Escherichia coli
Outline: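 Lowest concentration stopping macroscopically visible growth under test conditions, by broth microdilution, defines the MIC (μg/mL).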

Row | SMILES | MIC [1] | MIC [2] | MIC [3]
1 | CC(C)NCc1cc2cc3c(cc2n1C)CCCc1c-3[nH]c(=O)c(C(=O)O)c1O.Cl [Cpd 26, 4-hydroxy-10-((isopropylamino)methyl)-9-methyl-2-oxo-1,2,5,6,7,9-hexahydropyrido[3′,2′:6,7]cyclohepta[1,2-f]indole-3-carboxylic acid hydrochloride] | < 1 µg/mL | 3.5 to 12.5 µg/mL | < 1 µg/mL
2 | CCC(C)NCc1cc2cc3c(cc2n1C)CCCc1c-3[nH]c(=O)c(C(=O)O)c1O.Cl (stereo not drawn) [Cpd 146, 10-((sec-butylamino)methyl)-4-hydroxy-9-methyl-2-oxo-1,2,5,6,7,9-hexahydropyrido[3′,2′:6,7]cyclohepta[1,2-f]indole-3-carboxylic acid hydrochloride] | < 1 µg/mL | 3.5 to 12.5 µg/mL | < 1 µg/mL
3 | CNCCNCc1cc2cc3c(cc2n1C)CCCc1c-3[nH]c(=O)c(C(=O)O)c1O.Cl.Cl [Cpd 143, 4-hydroxy-9-methyl-10-(((2-(methylamino)ethyl)amino)methyl)-2-oxo-1,2,5,6,7,9-hexahydropyrido[3′,2′:6,7]cyclohepta[1,2-f]indole-3-carboxylic acid dihydrochloride] | 3.5 to 12.5 µg/mL | 12.5 to 150 µg/mL | 12.5 to 150 µg/mL
4 | CC(C)NCc1cc2cc3c(cc2n1C)C(C)CCc1c-3[nH]c(=O)c(C(=O)O)c1O.Cl (stereo not drawn) [Cpd 64, 4-hydroxy-10-((isopropylamino)methyl)-7,9-dimethyl-2-oxo-1,2,5,6,7,9-hexahydropyrido[3′,2′:6,7]cyclohepta[1,2-f]indole-3-carboxylic acid hydrochloride] | 1 to 3.5 µg/mL | 12.5 to 150 µg/mL | 3.5 to 12.5 µg/mL
5 | C#CCNCc1cc2cc3c(cc2n1C)CCCc1c-3[nH]c(=O)c(C(=O)O)c1O.Cl [Cpd 45, 4-hydroxy-9-methyl-2-oxo-10-((prop-2-yn-1-ylamino)methyl)-1,2,5,6,7,9-hexahydropyrido[3′,2′:6,7]cyclohepta[1,2-f]indole-3-carboxylic acid hydrochloride] | < 1 µg/mL | 1 to 3.5 µg/mL | 1 to 3.5 µg/mL
6 | O=C(O)c1c(O)c2c([nH]c1=O)-c1ccc(N3CCCC3)cc1OCC2 [Cpd 77, 4-hydroxy-2-oxo-9-(pyrrolidin-1-yl)-1,2,5,6-tetrahydrobenzo[2,3]oxepino[4,5-b]pyridine-3-carboxylic acid] | < 1 µg/mL | 3.5 to 12.5 µg/mL (≈ 10.2 to 36.5 µM) | 12.5 to 150 µg/mL (≈ 36.5 to 438 µM)
7 | CC1COc2cc(N3C[C@@H]4[C@H](C3)[C@H]4N(Cc3ccccc3)Cc3ccccc3)ccc2-c2[nH]c(=O)c(C(=O)O)c(O)c21 (stereo partly drawn) [Cpd 85, 9-((cis,cis)-6-(dibenzylamino)-3-azabicyclo[3.1.0]hexan-3-yl)-4-hydroxy-5-methyl-2-oxo-1,2,5,6-tetrahydrobenzo[2,3]oxepino[4,5-b]pyridine-3-carboxylic acid hydrochloride] | 12.5 to 150 µg/mL | 12.5 to 150 µg/mL | 12.5 to 150 µg/mL
8 | CCN(CC)Cc1cc2cc3c(cc2n1C)CCCc1c-3[nH]c(=O)c(C(=O)O)c1O.Cl [Cpd 43, 10-((diethylamino)methyl)-4-hydroxy-9-methyl-2-oxo-1,2,5,6,7,9-hexahydropyrido[3′,2′:6,7]cyclohepta[1,2-f]indole-3-carboxylic acid hydrochloride] | < 1 µg/mL | 3.5 to 12.5 µg/mL | 1 to 3.5 µg/mL
9 | Cl.Cl.Cn1c(CNCCN2CCCC2)cc2cc3c(cc21)OCCc1c-3[nH]c(=O)c(C(=O)O)c1O [Cpd 179, 4-hydroxy-9-methyl-2-oxo-10-(((2-(pyrrolidin-1-yl)ethyl)amino)methyl)-2,5,6,9-tetrahydro-1H-pyrido[2′,3′:4,5]oxepino[3,2-f]indole-3-carboxylic acid dihydrochloride] | 12.5 to 150 µg/mL | 12.5 to 150 µg/mL | 12.5 to 150 µg/mL
10 | CCCCCNCc1cc2cc3c(cc2n1C)CCCc1c-3[nH]c(=O)c(C(=O)O)c1O.Cl [Cpd 137, 4-hydroxy-9-methyl-2-oxo-10-((pentylamino)methyl)-1,2,5,6,7,9-hexahydropyrido[3′,2′:6,7]cyclohepta[1,2-f]indole-3-carboxylic acid hydrochloride] | < 1 µg/mL | 3.5 to 12.5 µg/mL | < 1 µg/mL
